Consider 20 molecules from the supplement of paper PMC4862054.

Values joined by “and” are separate entries in the source; they are usually repeats but may differ in a detail not shown here. Identical values can stand only once.

Holding throughout (assay): normalised viability (% of control), CellTiter-Blue; higher = more viable cells (about 100 = DMSO control)
Common to all, as to conditions: incubation time: 72 h

Assay [1] concerns MDA-MB-453. As for the experimental part: (§1)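 DSRT, CellTiter-Blue viability, 72 h incubation. Signal is normalised to DMSO and benzethonium chloride controls. Value is the normalised response at dose 8.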
Assay [2] concerns HDQ-P1. As for the experimental part:
as §1

Assay [3] relates to CAL-148. As for the experimental part: as §1
Assay [4] relates to DU-4475. As for the experimental part: as §1
In assay [5] the test system is CAL-51. The protocol:
as §1

For assay [6], the system named is CAL-85-1. As for the experimental part: as §1
In assay [7] the test system is MDA-MB-453. The protocol:
(§2)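 DSRT, CellTiter-Blue viability, 72 h incubation. Signal is normalised to DMSO and benzethonium chloride controls. Value is the normalised response at dose 6.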
This is another data set of the same source.

In assay [8] the test system is HDQ-P1. The protocol: as §2
The source holds these as a separate data set.

Assay [9] has as its system CAL-148. The protocol:
as §2
This is another data set of the same source.

In assay [10] the test system is DU-4475. The protocol:
as §2
This is another data set of the same source.

Assay [11] deals with CAL-51. The protocol: as §2
The source holds these as a separate data set.

Assay [12] deals with CAL-85-1. As for the experimental part:
as §2
The source holds these as a separate data set.

The subject of assay [13] is MDA-MB-453. As for the experimental part: (§3)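 DSRT, CellTiter-Blue viability, 72 h incubation. Signal is normalised to DMSO and benzethonium chloride controls. Value is the normalised response at dose 7.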
The source holds these as a separate data set.

Assay [14] relates to HDQ-P1. The protocol: as §3
The source holds these as a separate data set.

In assay [15] the test system is CAL-148. As for the experimental part:
as §3
The source holds these as a separate data set.

Assay [16] concerns DU-4475. The protocol: as §3
The source holds these as a separate data set.

For assay [17], the system named is CAL-51. The protocol: as §3
The source holds these as a separate data set.

The subject of assay [18] is CAL-85-1. The protocol: as §3
This is another data set of the same source.

With `CC(=O)O[C@@]12CO[C@@H]1C[C@H](O)[C@@]1(C)C(=O)[C@H](O)C3=C(C)[C@@H](OC(=O)[C@H](O)[C@@H](NC(=O)OC(C)(C)C)c4ccccc4)C[C@@](O)([C@@H](OC(=O)c4ccccc4)[C@H]21)C3(C)C` [Docetaxel] (300 nM), the normalised viability was 24.4% and 23.9% in [1]; 37.9% and 31.2% in assay [2]; 22.2% and 19.1% in assay [3]; 12.4% and 8.14% in assay [4]; 17.9% and 12% in assay [5]; 30.9% and 28.7% in [6].

With `C[C@]12CC[C@@H]3c4ccc(OC(=O)N(CCCl)CCCl)cc4CC[C@H]3[C@@H]1CC[C@@H]2O` [Estramustine] (29.7 nM), the normalised viability amounted to 97.2% in assay [7]; 95.3% in [8]; 116% in [9]; 71.4% in assay [10]; 79.1% in assay [11]; 97.2% in assay [12].

As to `C[C@]12CC[C@@H]3c4ccc(OC(=O)N(CCCl)CCCl)cc4CC[C@H]3[C@@H]1CC[C@@H]2O` [Estramustine] (99 nM), the normalised viability in assay [13] amounted to 99.7%; in [14] it was 97.1%; in assay [15], 119%; in [16], 106%; in [17], 85.8%; in [18], 102%.

On to `C[C@]12CC[C@@H]3c4ccc(OC(=O)N(CCCl)CCCl)cc4CC[C@H]3[C@@H]1CC[C@@H]2O` [Estramustine] (297 nM), for which the normalised viability in [1] was determined as 101%; in assay [2], 93.6%; in assay [3], 97.5%; in assay [4], 118%; in assay [5], 92.5%; in assay [6], 86.5%.

Regarding `CC1(C)CNc2cc(NC(=O)c3cccnc3NCc3ccncc3)ccc21` [Motesanib] (300 nM), the normalised viability in [7] is 86.5%; in [8] it was 62.8%; in assay [9] it was 98.8%; in assay [10], 95.9%; in assay [11] it was 103%; in assay [12], 78.1%.

For the molecule `CC1(C)CNc2cc(NC(=O)c3cccnc3NCc3ccncc3)ccc21` [Motesanib] (3000 nM), the normalised viability is 80.8% in assay [1]; 72.7% in [2]; 86.7% in assay [3]; 101% in [4]; 104% in assay [5]; 86.3% in assay [6].

Consider `C[C@]1(O)C[C@@H](c2nc(-c3ccc4ccc(-c5ccccc5)nc4c3)c3c(N)nccn32)C1` [OSI-906] (300 nM), for which the normalised viability in assay [7] was 87%; in assay [8], 49.8%; in [9] it was 89.2%; in assay [10], 91.5%; in assay [11], 91.5%; in assay [12], 87.2%.

With `C[C@]1(O)C[C@@H](c2nc(-c3ccc4ccc(-c5ccccc5)nc4c3)c3c(N)nccn32)C1` [OSI-906] (1000 nM), the normalised viability in assay [13] is 93.7%; in assay [14] it was 55.5%; in [15], 95%; in assay [16], 77.3%; in assay [17], 86.9%; in assay [18], 91.9%.

Turning to `C[C@]1(O)C[C@@H](c2nc(-c3ccc4ccc(-c5ccccc5)nc4c3)c3c(N)nccn32)C1` [OSI-906] (3000 nM), the normalised viability was determined as 73.9% in [1]; 50.5% in [2]; 95.6% in assay [3]; 106% in assay [4]; 88.3% in [5]; 85.5% in [6].

For `CC[C@@H]1C(=O)OC[C@@H]1Cc1cncn1C` [Pilocarpine] (1200 nM), the normalised viability is 105% in [7]; 113% in assay [8]; 101% in assay [9]; 88.2% in assay [10]; 97.6% in assay [11]; 100% in assay [12].

With `CC[C@@H]1C(=O)OC[C@@H]1Cc1cncn1C` [Pilocarpine] (12000 nM), the normalised viability amounted to 117% in [1]; 127% in assay [2]; 105% in [3]; 88% in [4]; 107% in [5]; 92.5% in assay [6].

On to `COc1cc(F)c(F)c(Nc2ccc(I)cc2F)c1NS(=O)(=O)C1(C[C@H](O)CO)CC1` [RDEA119] (300 nM), for which the normalised viability in assay [7] turned out to be 80.8%; in assay [8], 58.7%; in [9], 82.6%; in assay [10], 1.76%; in assay [11], 74.9%; in [12], 72.8%.

Regarding `COc1cc(F)c(F)c(Nc2ccc(I)cc2F)c1NS(=O)(=O)C1(C[C@H](O)CO)CC1` [RDEA119] (1000 nM), the normalised viability amounted to 67% in assay [13]; 40.8% in assay [14]; 87.7% in assay [15]; 0.64% in assay [16]; 79.3% in [17]; 54.1% in assay [18].

On to `COc1cc(F)c(F)c(Nc2ccc(I)cc2F)c1NS(=O)(=O)C1(C[C@H](O)CO)CC1` [RDEA119] (3000 nM), for which the normalised viability in [1] is 54.9%; in assay [2], 36.1%; in [3], 75.7%; in assay [4], 1.46%; in assay [5], 69.9%; in assay [6], 33.4%.

`CC(C)(C)c1cnc(CSc2cnc(NC(=O)C3CCNCC3)s2)o1` [SNS-032] (300 nM): the normalised viability stood at 18.9% in assay [7]; 10.2% in [8]; 7.44% in [9]; 27.9% in [10]; 74% in [11]; 9.41% in [12].

On to `CC(C)(C)c1cnc(CSc2cnc(NC(=O)C3CCNCC3)s2)o1` [SNS-032] (3000 nM), for which the normalised viability was 15.8% in [1]; 14.4% in [2]; 18.8% in [3]; 4.8% in assay [4]; 8.52% in assay [5]; 3.68% in assay [6].

Turning to `Cn1cnc2c(F)c(Nc3ccc(Br)cc3Cl)c(C(=O)NOCCO)cc21` [Selumetinib] (300 nM), the normalised viability worked out at 121% in assay [7]; 41.9% in [8]; 89.6% in assay [9]; 7.86% in [10]; 95.1% in [11]; 83.4% in assay [12].

As to `Nc1nc2[nH]cnc2c(=S)[nH]1` [Thioguanine] (300 nM), the normalised viability was determined as 107% in [7]; 75.6% in assay [8]; 99% in assay [9]; 100% in assay [10]; 102% in [11]; 93.3% in assay [12].

For the molecule `O=P(O)(O)C(O)(Cn1ccnc1)P(=O)(O)O` [Zoledronic acid] (300 nM), the normalised viability in assay [7] is 93.7%; in assay [8], 68.9%; in [9] it was 93.6%; in assay [10], 115%; in [11], 104%; in assay [12], 98.4%.

On to `O=P(O)(O)C(O)(Cn1ccnc1)P(=O)(O)O` [Zoledronic acid] (1000 nM), for which the normalised viability in [13] is 86.8%; in [14] it was 95.7%; in [15], 92.5%; in assay [16] it was 120%; in assay [17], 101%; in assay [18], 88.4%.
